From patent US10570122B2, “Compounds with anti-tumoral activity” (AB Science, priority 2015, dated 2020)

Assays:
H1299 = assay: CellTiter-Blue cell-based survival/proliferation assay, H1299; conditions: Homo sapiens, NCI-H1299; H1299 lung tumor cell line, 48 h
How it was run: (§1)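 Compounds, diluted tenfold serially over 0–10 μM, are applied to 1·10^4 seeded cells per well for 48 h at 37 °C. Resorufin formed during a further 4 h with CellTiter-Blue is detected by fluorescence emission at 590 nm.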

HEPG2 = assay: CellTiter-Blue cell-based survival/proliferation assay, HEPG2; conditions: Homo sapiens; HEPG2 liver tumor cell line, 48 h
How it was run: as §1

HUT78 = assay: CellTiter-Blue cell-based survival/proliferation assay, HUT78; conditions: Homo sapiens, Lymphoma cell line HUT78, 48 h, read-out: Anti-tumoral activity (measured IC50) HUT78
Method: (§2) Cell-Based Proliferation Screening of Compounds
(§3) CellTiter-Blue cell-based survival/proliferation assay (Promega G8080) was performed on tumor cell lines. A total of 1·10^4 cells/well/50 μl were seeded in a 96-wells plate. Treatment was initiated by addition of a 2× drug solution of 1/10 serial dilutions ranging from 0 to 10 μM. Cells were grown for 48 h at 37° C. and then incubated with 10 μl/well of Promega CellTiter-Bleue reagent for 4 h at 37° C. The amount of resorufin dye formed was quantified by its fluorescence emission at 590 nm using a scanning multiwell spectrophotometer (OPTIMA, BMG labtech, France). A blank well without cells was used as a background control for the spectrophotometer.

HEP2 = assay: CellTiter-Blue cell-based survival/proliferation assay, HEP2; conditions: Homo sapiens, HEp-2; HEP2 head & neck tumor cell line, 48 h
How it was run: as §1

DU145 = assay: CellTiter-Blue cell-based survival/proliferation assay, DU145; conditions: Homo sapiens, DU-145; DU145 prostate tumor cell line, 48 h
How it was run: as §1

A498 = assay: CellTiter-Blue cell-based survival/proliferation assay, A498; conditions: Homo sapiens; A498 kidney tumor cell line, 48 h
How it was run: as §1

TOV112D = assay: CellTiter-Blue cell-based survival/proliferation assay, TOV112D; conditions: Homo sapiens; TOV112D ovary tumor cell line, 48 h
How it was run: as §1

MDAMB231 = assay: CellTiter-Blue cell-based survival/proliferation assay, MDAMB231; conditions: Homo sapiens, MDA-MB-231; MDAMB231 breast tumor cell line, 48 h
How it was run: as §1

KARPAS299 = assay: CellTiter-Blue cell-based survival/proliferation assay, KARPAS299; conditions: Homo sapiens, KARPAS-299, Lymphoma cell line KARPAS299, 48 h, read-out: Anti-tumoral activity (measured IC50) KARPAS299
Method: as §2, §3

CLS354 = assay: CellTiter-Blue cell-based survival/proliferation assay, CLS354; conditions: Homo sapiens, CLS-354; CLS354_4 head & neck tumor cell line, 48 h
How it was run: as §1

BT20 = assay: CellTiter-Blue cell-based survival/proliferation assay, BT20; conditions: Homo sapiens, BT-20; BT20 breast tumor cell line, 48 h
How it was run: as §1

CALU6 = assay: CellTiter-Blue cell-based survival/proliferation assay, CALU6; conditions: Homo sapiens, Calu-6; CALU6 lung tumor cell line, 48 h
How it was run: as §1

[1] = system: panel of about 34 human tumor cell lines; assay: Cell-based proliferation screening on panel of tumor cell lines; conditions: solid tumor cell line, cell line unknown, 48 h, read-out: IC50, solid tumor cell line of column 6 (last section of Table 3)
How it was run: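 CellTiter-Blue survival assay with 1·10^4 cells/well, each line treated 48 h at 37° C with 1/10 serial dilutions from 0 to 10 μM. Resorufin formed during a 4 h reagent incubation is read by fluorescence at 590 nm. A cell-free blank serves as background.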

DLD1 = assay: CellTiter-Blue cell-based survival/proliferation assay, DLD1; conditions: Homo sapiens, DLD-1; DLD_1 colorectal tumor cell line, 48 h
How it was run: as §1

A549 = assay: CellTiter-Blue cell-based survival/proliferation assay, A549; conditions: Homo sapiens; A549 lung tumor cell line, 48 h
How it was run: as §1

AGS = assay: CellTiter-Blue cell-based survival/proliferation assay, AGS; conditions: Homo sapiens; AGS stomach tumor cell line, 48 h
How it was run: as §1

SW579 = assay: CellTiter-Blue cell-based survival/proliferation assay, SW579; conditions: Homo sapiens; SW579 head & neck tumor cell line, 48 h
How it was run: as §1

HCT116 = assay: CellTiter-Blue cell-based survival/proliferation assay, HCT116; conditions: Homo sapiens, HCT-116; HCT116 colorectal tumor cell line, 48 h
How it was run: as §1

BXPC3 = assay: CellTiter-Blue cell-based survival/proliferation assay, BXPC3; conditions: Homo sapiens, BXPC-3; BXPC3 pancreas tumor cell line, 48 h
How it was run: as §1

OPM2 = assay: CellTiter-Blue cell-based survival/proliferation assay, OPM2; conditions: Homo sapiens, OPM-2, Myeloma cell line OPM2, 48 h, read-out: Anti-tumoral activity (measured IC50) OPM2
How it was run: as §1

ACHN = assay: CellTiter-Blue cell-based survival/proliferation assay, ACHN; conditions: Homo sapiens; ACHN kidney tumor cell line, 48 h
How it was run: as §1

HGC27 = assay: CellTiter-Blue cell-based survival/proliferation assay, HGC27; conditions: Homo sapiens, HGC-27; HGC27 stomach tumor cell line, 48 h
How it was run: as §1

PANC1 = assay: CellTiter-Blue cell-based survival/proliferation assay, PANC1; conditions: Homo sapiens, PANC-1; PANC_1 pancreas tumor cell line, 48 h
How it was run: as §1

MESSA = assay: CellTiter-Blue cell-based survival/proliferation assay, MESSA; conditions: Homo sapiens, MES-SA; MESSA ovary tumor cell line, 48 h
How it was run: as §1

HL60 = assay: CellTiter-Blue cell-based survival/proliferation assay, HL60; conditions: Homo sapiens, HL-60, Leukemia cell line HL60, 48 h, read-out: Anti-tumoral activity (measured IC50) HL60
How it was run: as §1

PC3 = assay: CellTiter-Blue cell-based survival/proliferation assay, PC3; conditions: Homo sapiens, PC-3; PC3 prostate tumor cell line, 48 h
How it was run: as §1

REC1 = assay: CellTiter-Blue cell-based survival/proliferation assay, REC1; conditions: Homo sapiens, Lymphoma cell line REC1, 48 h, read-out: Anti-tumoral activity (measured IC50) REC1
Method: as §2, §3

PLCPRF5 = assay: CellTiter-Blue cell-based survival/proliferation assay, PLCPRF5; conditions: Homo sapiens, PLC-PRF-5; PLC_PRF5 liver tumor cell line, 48 h
How it was run: as §1

IC50 [1] [nM] | SMILES | IC50 (H1299) [nM] | IC50 (HEPG2) [nM] | IC50 (HUT78) [nM] | IC50 (HEP2) [nM] | IC50 (DU145) [nM] | IC50 (A498) [nM] | IC50 (TOV112D) [nM] | IC50 (MDAMB231) [nM] | IC50 (KARPAS299) [nM] | IC50 (CLS354) [nM] | IC50 (BT20) [nM] | IC50 (CALU6) [nM] | IC50 (DLD1) [nM] | IC50 (A549) [nM] | IC50 (AGS) [nM] | IC50 (SW579) [nM] | IC50 (HCT116) [nM] | IC50 (BXPC3) [nM] | IC50 (OPM2) [nM] | other results
> 1000 | Cc1ccc(OCCN(C)C)cc1Nc1ncc(-c2ccc(-n3cccn3)cc2)o1 [Example 030, [5-(2-Dimethylamino-ethoxy)-2-methyl-phenyl]-[5-(4-pyrazol-1-yl-phenyl)-oxazol-2-yl]-amine] | > 1000 | > 1000 | > 1000 | > 1000 | > 1000 | > 1000 | > 1000 | > 1000 | > 1000 | > 1000 | > 1000 | > 1000 | > 1000 | > 1000 | > 1000 | > 1000 | > 1000 | > 1000 | > 1000 | IC50 (ACHN): > 1000 nM; IC50 (HGC27): > 1000 nM; IC50 (PANC1): > 1000 nM; IC50 (MESSA): > 1000 nM; IC50 (HL60): > 1000 nM; IC50 (PC3): > 1000 nM; IC50 (REC1): > 1000 nM; IC50 (PLCPRF5): > 1000 nM
> 1000 | CNC(=O)c1ccc(C)c(Nc2ncc(-c3ccc(-n4cccn4)cc3)o2)c1 [Example 031, 4,N-Dimethyl-3-[5-(4-pyrazol-1-yl-phenyl)-oxazol-2-ylamino]-benzamide] | > 1000 | > 1000 | > 1000 | > 1000 | > 1000 | > 1000 | > 1000 | > 1000 | 100 to 500 | > 1000 | > 1000 | > 1000 | > 1000 | > 1000 | > 1000 | > 1000 | > 1000 | > 1000 | > 1000 | IC50 (ACHN): > 1000 nM; IC50 (HGC27): > 1000 nM; IC50 (PANC1): > 1000 nM; IC50 (MESSA): > 1000 nM; IC50 (HL60): > 1000 nM; IC50 (PC3): > 1000 nM; IC50 (REC1): > 1000 nM; IC50 (PLCPRF5): > 1000 nM
> 1000 | Cc1ccc(C(=O)NCCN2CCN(C)CC2)cc1Nc1ncc(-c2ccc(-n3cccn3)cc2)o1 [Example 032, 4-Methyl-N-[2-(4-methyl-piperazin-1-yl)-ethyl]-3-[5-(4-pyrazol-1-yl-phenyl)-oxazol-2-ylamino]-benzamide] | > 1000 | > 1000 | > 1000 | > 1000 | > 1000 | > 1000 | > 1000 | > 1000 | > 1000 | > 1000 | > 1000 | > 1000 | > 1000 | > 1000 | > 1000 | > 1000 | > 1000 | > 1000 | > 1000 | IC50 (ACHN): > 1000 nM; IC50 (HGC27): > 1000 nM; IC50 (PANC1): > 1000 nM; IC50 (MESSA): > 1000 nM; IC50 (HL60): > 1000 nM; IC50 (PC3): > 1000 nM; IC50 (REC1): > 1000 nM; IC50 (PLCPRF5): > 1000 nM
> 1000 | CCOCc1ccc(C)c(Nc2ncc(-c3ccc(-n4cncn4)cc3)o2)c1 [Example 034, (5-Ethoxymethyl-2-methyl-phenyl)-[5-(4-[1,2,4]triazol-1-yl-phenyl)-oxazol-2-yl]-amine] | > 1000 | > 1000 | 100 to 500 | 500 to 1000 | > 1000 | > 1000 | 500 to 1000 | > 1000 | 100 to 500 | 500 to 1000 | > 1000 | > 1000 | > 1000 | > 1000 | > 1000 | > 1000 | > 1000 | > 1000 | > 1000 | IC50 (ACHN): > 1000 nM; IC50 (HGC27): > 1000 nM; IC50 (PANC1): > 1000 nM; IC50 (MESSA): > 1000 nM; IC50 (HL60): > 1000 nM; IC50 (PC3): > 1000 nM; IC50 (REC1): 100 to 500 nM; IC50 (PLCPRF5): > 1000 nM
